Data set [1] concerns breast cancer cells (MDA-MB-231). In words: CORA: Bn-O-glycans in media of MDA-MB-231 cells incubated with precursor, MALDI-TOF-MS. In kind it is cell-based. To be noted: MDA-MB-231, 0-250 μM; for lowest concentration at which Bn-O-glycans with the predicted sialylated core 2 structure were observed: 3 d. On the procedure:
(§1) To assess whether peracetylation of Bn-α-GalNAc enhances uptake and subsequent sensitivity, breast cancer cells (MDA-MB-231) were incubated with 0-250 μM Ac3GalNAc-α-Bn or Bn-α-GalNAc for 3 d. […] Further, peracetylation of Bn-α-GalNAc was stable in complete media for at least 3 d. Thus, peracetylation improved sensitivity, and at such low concentrations potential side effects should be limited, as explored below.
To optimize conditions, MDA-MB-231 cells were cultured with 0-250 μM Ac3GalNAc-α-Bn for 2-4 d. […] Thus, CORA should be performed with low concentrations of Ac3GalNAc-α-Bn. For most subsequent studies, cells were incubated with 50 μM Ac3GalNAc-α-Bn for 3 d.
Ac3GalNAc-α-Bn or Bn-α-GalNAc was dissolved to 50 or 100 mM in DMSO and further diluted to 5-250 μM in complete media with 5% (vol/vol) FBS, except for HUVEC and human dermal fibroblast cultures, which were incubated in ATCC preformulated media. Media with compound was administered 1 d (most cells) or 2 d (HUVECs and human dermal fibroblasts) after seeding. Cells were then incubated for 2-4 d with compound before media was collected.
Compound was added to complete media, and media was collected after incubation with cells. Media was run over a 10-kDa centrifugal filter (Amicon Ultra 4, Millipore) for ˜30 min at 2,465 g, and flow-through was collected. Bn-O-glycans were subsequently purified from flow-through with a Sep-Pak 3-cc C18 cartridge (Waters) by gravity chromatography. The column was equilibrated by two washes with 2 ml of acetonitrile and four washes with 2 ml of 0.1% (vol/vol) trifluoracetic acid (TFA). Media was applied and the column was washed four times with 2 ml of 0.1% (vol/vol) TFA for each wash. Bn-O-glycans were then eluted with two 1.5-ml applications of 50% (vol/vol) acetonitrile, 0.1% (vol/vol) TFA. Eluent was divided into three fractions, concentrated by CentriVap to remove organic solvents, and lyophilized.
Dried samples were permethylated. NaOH-DMSO (200 μl) slurry was added followed by 200 μl of methyl iodide to samples. Samples were shaken for 30 min and then spun down at 5,000 g for 5 min. Supernatant was collected and chloroform extraction was performed to isolate permethylated glycans. Chloroform (500 μl) and 500 μl of water was added to supernatant. The samples were mixed and centrifuged at 5,000 g for 1 min. Two more washes were performed with 500 μl of water each before evaporating chloroform by CentriVap for 30 min. Bn-O-glycans were then resuspended in 25 or 50 μl of 50% (vol/vol) methanol. Spotted: 0.5 μl of matrix (10 mg/ml […] (Sigma), 50% (vol/vol) acetonitrile, 0.1% (vol/vol) TFA) and 0.5 μl of sample on an Anchorchip target plate, air dried the spots and analyzed by MALDI-TOF-MS using an Ultraflex-II TOF-TOF system (Bruker Daltonics). […]

A further data set has as its system cells. The data set is described as follows: CORA with the isomer Ac3GlcNAc-β-Bn: secretion of Bn-O-glycans. The format is cell-based. On the procedure:
CORA is an approach for both amplifying and profiling the mucin-type O-glycome in living cells. […] For example, MS analyses of β-eliminated O-glycans from WEHI-3 cells have not identified sialyl-LeX on core 2 O-glycans, a critical component on PSGL-1 recognized by P-selectin, which binds WEHI-3 cells. […] Thus the novel structures identified are natural O-glycans, mostly present on glycoproteins at low abundance.
CORA was performed on cells with mutant or wild-type C1galt1c1 (Cosmc), a chaperone known to be essential for T-synthase activity. Only cells with functional Cosmc and active T-synthase secreted Bn-O-glycans when we administered Ac3GalNAc-α-Bn (FIG. 2A-D).
Compound was added to complete media, and media was collected after incubation with cells. Media was run over a 10-kDa centrifugal filter (Amicon Ultra 4, Millipore) for ˜30 min at 2,465 g, and flow-through was collected. Bn-O-glycans were subsequently purified from flow-through with a Sep-Pak 3-cc C18 cartridge (Waters) by gravity chromatography. […]
(§2) Dried samples were permethylated. […] Spotted: 0.5 μl of matrix (10 mg/ml […] (Sigma), 50% (vol/vol) acetonitrile, 0.1% (vol/vol) TFA) and 0.5 μl of sample on an Anchorchip target plate, air dried the spots and analyzed by MALDI-TOF-MS using an Ultraflex-II TOF-TOF system (Bruker Daltonics). […]

Data set [2] in a line: Stability of peracetylation in complete media. In kind it is physicochemical. On the procedure:
as §1

Another data set deals with Molt-4. The data set is described as follows: CORA: Bn-O-glycans from media of Molt-4 cells, MALDI-TOF-MS. The settings on record: Molt-4, 50 μM, 3 d. The format is cell-based. The method, then:
(§3) Adherent (HEK293) and suspension (Molt-4) cells were cultured in complete media containing 50 μM Ac3GalNAc-α-Bn or vehicle (dimethyl sulfoxide (DMSO)) for 3 d. Putative Bn-O-glycans from the media were separated from larger material with a cutoff membrane, purified by C18 chromatography, permethylated and analyzed by MALDI-TOF-MS. Here as elsewhere, the permethylated nonsulfated and/or nonphosphorylated glycans were analyzed.
(§4) Compound was added to complete media, and media was collected after incubation with cells. Media was run over a 10-kDa centrifugal filter (Amicon Ultra 4, Millipore) for ˜30 min at 2,465 g, and flow-through was collected. Bn-O-glycans were subsequently purified from flow-through with a Sep-Pak 3-cc C18 cartridge (Waters) by gravity chromatography. The column was equilibrated by two washes with 2 ml of acetonitrile and four washes with 2 ml of 0.1% (vol/vol) trifluoracetic acid (TFA). Media was applied and the column was washed four times with 2 ml of 0.1% (vol/vol) TFA for each wash. […]
as §2

For another data set, the system named is HEK293. In words: CORA: Bn-O-glycans from media of HEK293 cells, MALDI-TOF-MS. In kind it is cell-based. The settings on record: HEK293, 50 μM, 3 d. The method, then:
as §3, §4, §2

Entries after “also recorded” stand apart in the source; their conditions may differ.

With `CC(=O)N[C@H]1[C@@H](OCc2ccccc2)O[C@H](CO)[C@H](O)[C@@H]1O` [Bn-α-GalNAc, reference compound], the “lowest concentration at which Bn-O-glycans with the predicted sialylated core 2 structure were observed” value in data set [1] was 250 µM.

In the case of `CC(=O)N[C@H]1[C@H](OCc2ccccc2)O[C@H](COC(C)=O)[C@@H](OC(C)=O)[C@@H]1OC(C)=O` [Ac3GlcNAc-β-Bn], in the data set on cells, the “Bn-O-glycans secreted by cells incubated with the compound” value was “no glycans or a trisaccharide (Sia-Gal-GlcNAc-Bn) only; also recorded: no Bn-O-glycans or only the simple trisaccharide Neu5Ac-Gal-GlcNAc-Bn”.

For `CC(=O)N[C@H]1[C@@H](OCc2ccccc2)O[C@H](COC(C)=O)[C@H](OC(C)=O)[C@@H]1OC(C)=O` [Ac3GalNAc-α-Bn, peracetylated benzyl-α-N-acetylgalactosamine], the “peracetylation stable in complete media” value in data set [2] was “at least 3 d”. The “uptake and modification of the O-glycan precursor by glycosyltransferases (core 1- and core 2-based Bn-O-glycan compositions observed)” value with Molt-4 is “efficient uptake and modification”; in the data set on HEK293, “efficient uptake and modification”. Further, in data set [1] (2-4 d), the “effect of increasing concentration on Bn-O-glycan abundance” value is listed as “shifted abundance from disialylated to monosialylated core 2”. For the same molecule, in data set [1] (2 d), the “lowest concentration at which Bn-O-glycans in culture media were seen” value came out at 5 µM. In addition, the “lowest concentration at which Bn-O-glycans with the predicted sialylated core 2 structure were observed” value in data set [1] was 25 µM.
